From article PMC7604414, “Favipiravir at high doses has potent antiviral activity in SARS-CoV-2−infected hamsters, whereas hydroxychloroquine lacks activity” (Proceedings of the National Academy of Sciences of the …, 2020)
Values joined by “and” are separate entries in the source; they are usually repeats but may differ in a detail not shown here. Equal entries are not always repeated. Where two headings read alike, the source gives them in different places.

What was measured:
[1] = system: COVID-19; set-up: method as in ref 32 = [32]; 32 P. W. Horby , M. Landray , “Press release: No clinical benefit from use of hydroxychloroquine in hospitalised patients with COVID-19” (University of Oxford, 2020) .; conditions: patients admitted with COVID-19; cited from earlier work
[2] = system: SARS-CoV-2; conditions: hamster, in vivo
[3] = set-up: method as in ref 50 (Tett et al.) and summary of product characteristics of Plaquenil; conditions: ref 50 (Tett et al.) and summary of product characteristics of Plaquenil; cited from earlier work
[4] = system: SARS-CoV-2; set-up: method as in ref 13 = [13]; 13 P. Maisonnasse ., Hydroxychloroquine in the treatment and prophylaxis of SARS-CoV-2 infection in non-human primates . Research Square:10.21203/RS.3.RS-27223/V1 (6 May 2020) .; conditions: therapeutic and prophylactic setting; cited from earlier work
[5] = system: SARS-CoV-2; set-up: method as in PMID 32492293; conditions: postexposure prophylaxis, high doses of HCQ; cited from earlier work
[6] = Calculation of HCQ blood, total lung and lung compartment concentrations; set-up: species or system Syrian hamsters
Experimental: Starting from the measured total trough plasma concentrations measured at killing after 4 d or 5 d of HCQ treatment, total lung cytosolic concentrations of HCQ were calculated. First, the mean trough total plasma concentration of HCQ was used as a starting point to estimate the whole blood concentrations considering a blood to plasma ratio of 7.2, as reported by Tett et al. ([50]) and as mentioned in the summary of product characteristics of Plaquenil (Sanofi) (Eq. 1). whole blood concentration=plasma concentration×7.2.
Relying on the experimental Kp (tissue versus whole blood partition coefficient) values in rats, the total lung tissue concentrations of HCQ were determined. Based on the partition values as reported by Wei et al. ([51]), a lung Kp value of 50 was applied to estimate the total lung concentration (Eq. 2). total lung tissue concentration=mean blood concentration×50.
Based on these calculations, lung cytosolic HCQ concentrations correspond to 6% of the total lung tissue concentration (Eq. 3). total cytosolic lung tissue concentration=total lung tissue concentration×0.06.

[7] = system: SARS-CoV-2; assay: Reported in vitro EC50 values of HCQ against SARS-CoV-2; type: cell-based; conditions: equated to 3 times the reported EC50
[8] = system: SARS-CoV-2; conditions: interquartile range of 5.4 (25 to 75%); read-out: reported in vitro EC50, median value; cited from earlier work
[9] = system: SARS-CoV-2; set-up: method as in PMID 32444382; conditions: cited from earlier work
[10] = set-up: method as in ref 51 (Wei et al.); conditions: rats, ref 51 (Wei et al.); cited from earlier work
[11] = HCQ plasma trough concentrations in hamsters (HPLC-MS); conditions: female, Syrian, hamster, intraperitoneal, 50 mg/kg/d
[12] = value applied in pH partition calculation; cited from earlier work
[13] = Favipiravir plasma trough concentrations in hamsters; type: in vivo, Syrian hamsters; conditions: for concentration at 16 h after last treatment: female, hamster, plasma
[14] = human, in vivo; cited from earlier work
[15] = system: SARS-CoV-2; set-up: method as in PMID 33741945; conditions: cited from earlier work
[16] = set-up: method as in PMID 32405421; conditions: cited from earlier work
[17] = system: COVID-19; set-up: method as in ref 39 = [39]; 39 C. Chen ., Favipiravir versus arbidol for COVID-19: A randomized clinical trial . medRxiv:10.1101/2020.03.17.20037432 (20 March 2020) .; conditions: cited from earlier work

CCN(CCO)CCCC(C)Nc1ccnc2cc(Cl)ccc12 (stereo not shown) [HCQ, hydroxychloroquine]
mortality or duration of hospital stay [1]: did not result in a beneficial effect
radiological improvement (micro-CT) vs nontreated animals [2]: no radiological improvement
reduction in viral RNA load in the ileum or stool [2]: no reduction
reduction of infectious virus titers in the lungs [2]: no significant reduction
reduction of viral RNA in lung vs untreated infected hamsters [2]: 0.3 log10 viral RNA copies per mg of lung
weight loss [2]: < 5%
blood to plasma ratio [3]: 7.2
viral loads in SARS-CoV-2-infected cynomolgus macaques [4]: did not result in a significant decrease
prevention of SARS-CoV-2 infection or COVID-19-like disease [5]: did not prevent
lung cytosolic HCQ concentration as share of total lung tissue concentration ([6]; pH partition theory, relative lung compartment volumes): 6%
endosomal/lysosomal HCQ concentration ([6]; trough, HCQ sulfate 50 mg/kg/d): 1.9 mM
interstitial concentration in lung ([6]; trough, HCQ sulfate 50 mg/kg/d): 5.4 µM
total lung concentration (Eq. 2) ([6]; trough, HCQ sulfate 50 mg/kg/d, blood concentration × 50): 90.2 ± 69.4 µM
whole blood concentration (Eq. 1) ([6]; trough, HCQ sulfate 50 mg/kg/d, plasma concentration × 7.2): 1.8 ± 1.4 µM
total cytosolic lung tissue concentration (Eq. 3) ([6]; trough, HCQ sulfate 50 mg/kg/d, total lung × 0.06): 5.4 ± 4.2 µM
estimated EC90 (3 times the EC50), target lung concentration [7]: 13.5 ± 16.3 µM
EC50 [8]: 4.5 µM
virus titers in SARS-CoV-2-infected ferrets [9]: not able to significantly reduce
lung Kp (tissue versus whole blood partition coefficient) [10]: 50
concentration at 4 d post infection (at killing) [11]: 84 ng/mL and 300 nM
pKa [12]: 9.67

NC(=O)c1nc(F)c[nH]c1=O [favipiravir]
concentration at 16 h after last treatment ([13]; Syrian, intraperitoneal, 1000 mg/kg/d, favipiravir 1,000 mg/kg/d i.p. BID for 4 d, read-out: plasma trough level): ~4400 ng/mL
concentration at 16 h after last treatment ([13]; intraperitoneal, 1000 mg/kg/d, favipiravir 1,000 mg/kg/d i.p. BID for 4 d, read-out: plasma trough level): 4400 ± 1600 ng/mL
concentration at 16 h after last treatment ([13]; intraperitoneal, favipiravir 600 mg/kg/d i.p. BID for 4 d, read-out: plasma trough level): 1200 ± 300 ng/mL
concentration at 16 h after last treatment ([13]; favipiravir 300 mg/kg/d oral BID for 4 d, read-out: average plasma trough concentration): 200 ± 30 ng/mL
favipiravir trough concentrations in sentinel hamsters vs infection model ([13]; preexposure prophylaxis with 300 and 1,000 mg/kg/d, dosing for 5 d): similar
median plasma trough concentration [14]: 25.9 µg/mL
viral replication in the lung ([15]; favipiravir 1,400 mg/kg/d TID started 1 d before intranasal infection): undetectable
toxicity (weight loss from first day of treatment) ([15]; favipiravir 1,400 mg/kg/d TID): high toxicity
virus infection in hamsters ([15]; favipiravir ~1,400 mg/kg/d TID): significant reductions
decrease of viral RNA in lung vs untreated infected hamsters [2]: 1.0 log10 RNA copies per mg of lung tissue
effect on viral RNA in ileum and stool [2]: a smaller effect
hamsters with infectious virus in the lungs [2]: two
histological lung pathology (H&E cumulative severity score) [2]: significant improvements
reduction in viral RNA levels in the lungs [2]: smaller inhibitory effect
reduction of relative infectivity of lung virus particles [2]: 136 fold and 172 fold
relative lung viral particle infectivity (infectious particles / viral RNA genomes) [2]: did not decrease
weight loss [2]: over 5%
weight loss, on average [2]: 2%
toxicity signs in clinical presentation ([2]; ip): No toxicity signs
teratogenicity [16]: teratogenic
clinical recovery rate vs arbidol control group ([17]; COVID-19 patients with hypertension and/or diabetes and critically ill patients): not significantly different
clinical recovery rate at day 7 vs arbidol control group ([17]; COVID-19 patients with mild symptoms): higher
